Reference: PMC3073677 (Journal of molecular graphics & modelling, 2010)
Like-named read-outs stand apart in the source and are kept apart here. Blank lines part the entries; values can stand above or below the compound they belong to.

Assays:
human DHFR = target: T1, human DHFR (Homo sapiens, UniProt P00374); assay: Human DHFR enzyme inhibition assay; assay type: biochemical
T1 sequence (P00374 1-187): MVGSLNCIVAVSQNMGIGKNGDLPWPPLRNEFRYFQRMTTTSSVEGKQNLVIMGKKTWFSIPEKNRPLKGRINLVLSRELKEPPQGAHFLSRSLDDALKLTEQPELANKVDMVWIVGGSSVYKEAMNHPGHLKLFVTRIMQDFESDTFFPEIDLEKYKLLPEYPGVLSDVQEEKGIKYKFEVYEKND

DHFR = conditions: cited from earlier work

- IC50 (human DHFR): < 0.1 µM
Compound: CCc1nc(N)nc(N)c1C#CCc1cc(OC)c(OC)c(OC)c1 [Compound 35, 2,4-diamino-5-(3-(3,4,5-trimethoxyphenyl)prop-1-ynyl)-6-ethylpyrimidine]

Compound: N-α-(4-amino-4-deoxypteroyl)-N δ-hemiphthaloyl-L-ornithine [PT523]
- IC50 (DHFR; classical inhibitors): 0.0122 µM
